Six molecules from patent publication US20220204473A1, “COMPOUND AS IRAK INHIBITOR” (SHANGHAI MEIYUE BIOTECH DEVELOPMENT CO., LTD., priority 2018, published 2022) can be followed below.

Structures are written as SMILES. pIC50: −log10 of the molar value. Where two headings read alike, the source gives them in different places.

In series [1] the test system is cytokine TNF-α in LPS-induced human PBMCs. Description: Inhibition of cytokine TNF-α in LPS-induced human PBMC (ELISA). It is filed as cell-based. As to conditions: 0.1 μg/mL LPS for 4 h. As to the method:
Procedures: Cytokine production in human PBMCs (peripheral blood mononuclear cells) was induced by LPS (lipopolysaccharide) in vitro, and the inhibitory effect of the compounds on induced cytokine production in human PBMCs was investigated.
Fresh human PBMC was centrifuged for 10 min at room temperature at 450×g and the supernatant was discarded. The PBMC was resuspended in complete RPMI 1640 medium.
The assay was performed in complete medium. PBMC was seeded at a density of 1×10^5 cells/well into a 96-well plate. The compounds according to the present disclosure were serially diluted in an isotonic 100% DMSO solution to 8 concentrations from 20 μM to 0.002 nM respectively, with the final DMSO concentration being 0.25%. Cells were pre-incubated with the formulated compounds for 30 min at 37° C. prior to stimulation. To induce cytokine secretion, cells were stimulated with 0.1 μg/mL LPS (Sigma, Escherichia coli O111:B4) for 4 h at 37° C. The cell culture supernatant was then separated by centrifugation at 450×g for 10 min at room temperature.
The amount of secreted TNF-α in the supernatants was determined using the human TNF-α ELISA kit according to the manufacturer's instruction.
The readings of absorbance at A450 were measured with a microplate reader SpectraMax i3x (Molecular Device) for calculating the inhibition of the compounds, and IC50 values were calculated with GraphPad Prism 7.0 software respectively.
On the technique in general: ELISA stands for enzyme-linked immunosorbent assay.

The nature of series [2]: PK assay in rat (intravenous injection and oral gavage). Format: in vivo. As to conditions: plasma, male SD rat; for Cmax: read-out: Peak concentration Cmax; for AUC(0-t): read-out: Area under curve AUC0-t; for AUC(0-inf): read-out: Area under curve AUC0-∞; for MRT: read-out: Average retention time MRT; for clearance: read-out: Clearance CL; for half-life: read-out: Half life t1/2 (converted); for Vd: read-out: Volume of distribution at steady state VZ; for bioavailability: read-out: Bioavailability F; for Tmax: read-out: Time to peak tmax. As to the method:
The rats used for pharmacokinetic study in the example were male SPF-grade SD rats (B&K Universal, Shanghai).
Route of administration: a single dose by oral gavage or intravenous injection
Sampling points: 0.083 h, 0.25 h, 0.5 h, 1 h, 2 h, 4 h, 6 h, 8 h and 24 h after administration
Sample processing: 0.2 mL of venous blood was collected, and let stand on ice before centrifugation to separate plasma (centrifugation conditions: 8000 rpm, 6 min, 4° C.). The separated plasma was stored at −80° C. before analysis.
Internal standard working solution: An appropriate amount of tolbutamide internal standard stock solution at 645,000 ng/mL was added into a volumetric flask, and was diluted to the volume with methanol. The solution was well mixed to give an internal standard working solution with a concentration of 50 ng/mL.
Sample pretreatment: 50 μL of plasma was added into a 1.5-mL centrifuge tube, and added with 250 μL of internal standard solution (methanol of the same volume for the blank control). The solution was well mixed by vortex, and centrifuged for 5 min at 14000 rpm. 200 μL of the supernatant was transferred into a 96-well sample feeding plate, and loaded onto a LC-MS/MS system.
Column: ACQUITY UPLC BEH C18 1.7 μm (50 mm×2.10 mm)
Mobile phase: A: 0.1% aqueous formic acid; B: 0.1% formic acid in acetonitrile
The data processing system was Analyst software (Applied Biosystems, USA, ver 1.5.5).

The next series has as its target T1, CYP1A2 (Homo sapiens, UniProt P05177).
T1 construct: tissue Corning (USA); host or cells: mixed human liver microsomes
T1 sequence (P05177 1-516): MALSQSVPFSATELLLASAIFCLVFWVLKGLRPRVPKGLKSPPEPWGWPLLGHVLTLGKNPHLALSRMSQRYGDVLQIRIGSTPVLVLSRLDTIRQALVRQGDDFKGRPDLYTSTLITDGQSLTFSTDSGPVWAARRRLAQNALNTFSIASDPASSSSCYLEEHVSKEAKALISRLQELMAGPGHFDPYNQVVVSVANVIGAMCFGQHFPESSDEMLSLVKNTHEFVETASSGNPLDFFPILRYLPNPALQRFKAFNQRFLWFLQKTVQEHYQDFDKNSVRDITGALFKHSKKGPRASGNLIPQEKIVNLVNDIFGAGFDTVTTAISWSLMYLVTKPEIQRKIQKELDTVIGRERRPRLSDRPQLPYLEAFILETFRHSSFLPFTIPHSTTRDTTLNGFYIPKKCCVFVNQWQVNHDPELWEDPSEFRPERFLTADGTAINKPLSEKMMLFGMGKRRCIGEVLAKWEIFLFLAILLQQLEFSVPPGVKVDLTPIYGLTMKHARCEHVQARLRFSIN
Description: CYP450 inhibition in human liver microsomes, CYP1A2. Format: in vitro ADME. The settings on record: human liver microsomes, probe phenacetin; read-out: IC50, subtype 1A2. As to the method: This study was intended to investigate the inhibitory effect of the test compounds on five major CYP450 enzyme subtypes CYP1A2, 2C9, 2C19, 2D6 and 3A4 in human liver microsomes. The mixed human liver microsomes used in this assay were purchased from Corning (USA). The test compounds were co-incubated at 7 concentrations with human liver microsomes and five probe substrates (phenacetin for CYP1a2, diclofenac for CYP2C9, mephenytoin for CYP2C19, dextromethorphan for CYP2D6, midazolam for CYP3A4-M, mixed). The reaction was initiated by adding coenzyme NADPH, and terminated by adding acetonitrile containing internal standard. After the proteins were precipitated, the supernatant was centrifuged. The characteristic metabolites in the supernatant (acetaminophen for CYP1A2, 4-hydroxydiclofenac for CYP2C9, 4-hydroxymephenytoin for CYP2C19, dextrorphan for CYP2D6, 1-hydroxymidazolam for CYP3A4-M) were analyzed by LC-MS/MS. The influence of the test compounds on production of the characteristic metabolites was finally analyzed on the basis of the data obtained. A selective inhibitor (ketoconazole for CYP3A4-M) was used as positive control. All samples were tested in duplicate.
(Microsomes from liver hold many membrane-bound enzymes, among them those of drug oxidation.)

Where [3] appears, read: 1 mg/kg, intravenous injection, 1 mpk, 5% DMSO + 15% Solutol + 80% Saline.
[4] abbreviates: 1 mg/kg, intravenous injection, 1 mpk.
Setting [5] is: 2 mg/kg, oral administration, 2 mpk, 5% DMSO + 15% Solutol + 80% Saline.
Setting [6] is: 5 mg/kg, oral administration, 5 mpk, 15% solutol HS15 + 85% PBS.

`CN(C)c1cc2nn([C@H]3C[C@H](C(C)(C)O)C3)cc2cc1NC(=O)c1cccc(C(F)(F)F)n1` [MY-004-089]: in series [1], the IC50 was 165 nM. Moreover, the Cmax in series [2] (setting [3]) turned out to be 1580 ng/mL. In addition, in series [2] (setting [4]), the AUC(0-t) came to 3390 ng·h/mL, the AUC(0-inf) came out at 3510 ng·h/mL, the MRT was determined as 5.2 h and the clearance is 4.89 mL/min/kg. Further, in series [2] (setting [4]), the half-life was 5.5 h and the Vd is 2.26 L/kg. In series [2] (setting [5]), the AUC(0-t) is 3000 ng·h/mL, the AUC(0-inf) came to 3550 ng·h/mL, the MRT is 12.6 h and the bioavailability is 44.2%. In series [2] (setting [5]), the half-life is 8.11 h, the Cmax came out at 227 ng/mL and the time to peak (Tmax) is 4 h.

Molecule `COc1cc2nn([C@H]3CC[C@](C)(O)CC3)cc2cc1NC(=O)c1cccc(C(F)(F)F)n1` [MY-004-126-1] registered a half-maximal inhibitory concentration (IC50) in series [1] of 71.8 nM. In series [2] (setting [3]), the Cmax was 1210 ng/mL. Further, in series [2] (setting [4]), the AUC(0-t) came out at 3150 ng·h/mL, the AUC(0-inf) is 3250 ng·h/mL, the MRT was determined as 5.46 h and the clearance was found to be 5.14 mL/min/kg. Further, in series [2] (setting [4]), the half-life was 5.25 h and the Vd stood at 2.34 L/kg. Besides, in series [2] (setting [6]), the AUC(0-t) was found to be 11500 ng·h/mL, the AUC(0-inf) is 17700 ng·h/mL, the MRT stood at 22.4 h and the bioavailability is 73.1%. For the same molecule, in series [2] (setting [6]), the half-life is 15.2 h, the Cmax was 924 ng/mL and the Tmax came to 4 h. Also, the pIC50 at CYP1A2 was less than 4.52.

`COc1cc2nn([C@H]3CC[C@@](C)(O)CC3)cc2cc1NC(=O)c1cccc(C(F)(F)F)n1` [MY-004-126-2]: in series [2] (setting [3]), the Cmax was 1430 ng/mL. Also, in series [2] (setting [4]), the AUC(0-t) turned out to be 4080 ng·h/mL, the AUC(0-inf) is 4540 ng·h/mL, the MRT is 8.81 h and the clearance is 3.74 mL/min/kg. In addition, in series [2] (setting [4]), the half-life was 7.59 h and the Vd stood at 2.4 L/kg. In series [2] (setting [6]), the AUC(0-t) was 15400 ng·h/mL, the AUC(0-inf) is 35900 ng·h/mL, the MRT was 10.3 h and the bioavailability was 75.8%. Further, in series [2] (setting [6]), the half-life is 24.8 h, the Cmax is 1150 ng/mL and the Tmax was found to be 4 h.

As for `COc1cc2nn([C@H]3CC[C@H](O)CC3)cc2cc1NC(=O)c1cccc(C(F)(F)F)n1` [MY-004-127-1], the Cmax in series [2] (setting [3]) was 1420 ng/mL. Moreover, in series [2] (setting [4]), the AUC(0-t) was determined as 5530 ng·h/mL, the AUC(0-inf) was 5880 ng·h/mL, the MRT came to 7.54 h and the clearance is 2.84 mL/min/kg. In series [2] (setting [4]), the half-life is 6.29 h and the Vd came to 1.55 L/kg. In series [2] (setting [6]), the AUC(0-t) turned out to be 18400 ng·h/mL, the AUC(0-inf) came to 22500 ng·h/mL, the MRT is 9.16 h and the bioavailability amounted to 66.5%. In series [2] (setting [6]), the half-life was 8.84 h, the Cmax stood at 1480 ng/mL and the Tmax came out at 4.67 h. The pIC50 at CYP1A2 is less than 4.52.

With `CN(C)c1cc2nn([C@H]3CC[C@H](O)CC3)cc2cc1NC(=O)c1cccc(C(F)(F)F)n1` [MY-004-153], in series [1], the 50% inhibitory concentration (IC50) worked out at 191 nM.

For `CC(C)(O)c1cc2nn([C@H]3CC[C@](C)(O)CC3)cc2cc1NC(=O)c1cccc(C(C)(F)F)n1` [MY-004-165], the pIC50 on CYP1A2 is less than 4.52.

The IC50 is the concentration that gives 50% inhibition. Lower therefore signals higher potency. By MRT is commonly meant a mean duration of stay, worked out from the concentration-time curve. A word on the bioavailability: it is the share of a dose that reaches the circulation, judged against a reference dose that is usually intravenous. The Tmax is the time from dosing to the highest level. In general, pIC50 refers to the negative decadic logarithm of the IC50, by convention in mol/L.
